Laboratory results taken from article PMC9936496, “Azobenzene-Based Amino Acids for the Photocontrol of Coiled-Coil Peptides” (Bioconjugate Chemistry, 2023).
Like-named read-outs stand apart in the source and are kept apart here. Starred links: 1 amine or outer side, 2 acyl side, 3 side chain; linkers in the order of their positions; H or OH if unused. Non-standard residues stand in square brackets, D forms with d. Residues, ends and D or L forms follow the SMILES beside them. X1 = O=C([C@@H](N[*:1])c1ccc(N=Nc2ccccc2)cc1)[*:2]

How the values were obtained:
[1] = HPLC quantification of trans/cis isomer ratio at photostationary states; assay type: physicochemical; settings: measurements repeated three times
Protocol: As azobenzene photoswitches based on phenylglycine are not known in the literature, the photoswitching behavior of Fmoc-APgly (10) was analyzed first in order to assess its suitability as a photoswitch (Figure 3A–C). […] The largest ratio of […]-to-cis isomers via photoisomerization was achieved through irradiation with 385 nm light (83.2 ± 0.2% […]), with higher wavelengths showing very similar distributions.
(§1) Figure 3 HPLC analysis of the photoswitching behavior of Fmoc-APgly, and the effect of azobenzene isomerization in peptide K3-APgly. (A) Chromatography traces of Fmoc-APgly in the dark state and after irradiation with different wavelengths of light, complete traces can be found in Figure S5. (B) Thermal relaxation of Fmoc-APgly from cis to trans as followed by HPLC. (C) Percentage of the trans and cis isomers in solution at the different PSSs; error bars indicate difference in deviation between repeat samples. (D) UV–vis spectra showing the spectra of K3-APgly in the dark and after irradiation with 340 or 435 nm light. (E) CD spectra showing the effect of photoisomerization on the structure of K3-Apgly by itself and as a coiled-coil with E3GY. […] Illumination and relaxation studies of the amino acid were performed in MeCN at 20 °C. Peptide spectra were recorded at 20 °C in PBS with [peptide] = 50 μM. […]
(§2) Analytical HPLC was performed using a Shimadzu Prominence-i LC-2030C 3D system fitted with a 4.6 × 50 mm Phenomenex Kinetex Evo C18 column. The isomeric ratio of 10 was quantified using a linear gradient of 10–90% MeCN in water containing 0.1% TFA as buffer. For each measurement, 2 μL of a 200 mM solution of 10 was injected, and measurements were repeated three times for accuracy.

[2] = Thermal relaxation of Fmoc-APgly from cis to trans followed by HPLC; assay type: physicochemical; settings: after irradiation with 340 nm light, in MeCN at 20 °C
Source text: as §1, §2

[3] = assay type: physicochemical; settings: K3-APgly in PBS versus 10 in MeCN
Protocol: For the potential application of K3-APgly in an active system, for example, for membrane fusion, the stability of the photoswitch to repeated light exposures (photocycling) is required. […] Finally, the peptide was irradiated with the 340 nm PSS and allowed to thermally relax, showing 65% recovery in 69 h.
Figure 4 Photocycling of K3-APgly between the dark-adapted, 340 and 435 nm PSS (left), thermal relaxation of the peptide after […] (middle) and distribution of the absorbance in the different states during cycling (right).

[4] = tested on: E3GY; assay: CD thermal unfolding curves fitted to a dimeric coiled-coil binding model; settings: coiled coil with E3GY; for Kf (folding constant) / Kd: binding model at 20 °C; for Kd: read-out: Ku (unfolding constant)
Protocol: CD melting curves measured at different concentrations were fitted to a coiled-coil binding model (Figures S2 and S3).[39]
CD spectra were recorded on a Jasco J-815 CD spectrometer fitted with a Peltier temperature controller. Spectra were recorded in a 2 mm quartz cuvette at 20 °C using either PBS or low-salt buffer (2 mM NaCl, 10 mM phosphate) at pH 7.4. Spectra were recorded between 190 and 280 nm with 1 nm intervals at a scan rate of 100 nm/min with five subsequent spectra averaged to minimize noise. […] Thermal melting curves were generated by recording θ222nm between 5 and 90 °C at a speed of 1 °C/min. If irradiated samples were used, samples were reilluminated every 30 min. Melting curves were measured at four different concentrations and fitted using the Fitdis software package.[39]

[5] = design: method as in 2 sources, ref 29 = [29]; PMID 16287231; doi:10.1021/bc049724g; Nakayama K.; Endo M.; Majima T. A Hydrophilic Azobenzene-Bearing Amino Acid for Photochemical Control of a Restriction Enzyme BamHI . Bioconjugate Chem. 2005 , 16 , 1360 – 1366 . 10.1021/bc049724g . ||| ref 33 = [33]; PMID 31495713; doi:10.1016/j.chembiol.2019.08.006; Kneuttinger A. C.; Straub K.; Bittner P.; Simeth N. A.; Bruckmann A.; Busch F.; Rajendran C.; Hupfeld E.; Wysocki V. H.; Horinek D.; et al. Light Regulation of Enzyme Allostery through Photo; settings: cited from earlier work
[6] = cited from earlier work
[7] = 340 nm irradiated state (predominantly cis)
[8] = dark state (predominantly trans)

O=C(N[C@H](C(=O)O)c1ccc(N=Nc2ccccc2)cc1)OCC1c2ccccc2-c2ccccc21 [compound 10, N-Fmoc-4-(phenylazo)-L-phenylglycine]
trans isomer ([1]; dissolved in MeCN, kept under dark conditions): 94.2 ± 0.2% | cis isomer ([1]; irradiated with 340 nm light, MeCN, 20 °C): 91.3 ± 0.6% | trans isomer ([1]; irradiation with 385 nm light, MeCN, 20 °C): 83.2 ± 0.2% | half-life of thermal relaxation cis to trans [2]: 28.17 h | half-life of thermal relaxation cis to trans ([2]; same value in hours): ≈ 28 h

CC[C@H](C)[C@H](NC(=O)[C@H](CCCCN)NC(C)=O)C(=O)N[C@@H](C)C(=O)N[C@@H](C)C(=O)N[C@@H](CC(C)C)C(=O)N[C@@H](CCCCN)C(=O)N[C@@H](CCC(=O)O)C(=O)N[C@@H](CCCCN)C(=O)N[C@H](C(=O)N[C@@H](C)C(=O)N[C@@H](C)C(=O)N[C@@H](CC(C)C)C(=O)N[C@@H](CCCCN)C(=O)N[C@@H](CCC(=O)O)C(=O)N[C@@H](CCCCN)C(=O)N[C@H](C(=O)N[C@@H](C)C(=O)N[C@@H](C)C(=O)N[C@@H](CC(C)C)C(=O)N[C@@H](CCCCN)C(=O)N[C@@H](CCC(=O)O)C(N)=O)[C@@H](C)CC)c1ccc(N=Nc2ccccc2)cc1 [K3-APgly] (Ac-KIAALKEK[X1]AALKEKIAALKE-NH2)
thermal relaxation, times slower than that observed for 10 in MeCN [3]: 1.6 | Kf (folding constant) [4, 7]: 2.97 × 10^5 M^–1 | Kd [4, 7]: 3370 nM | Kf (folding constant) [4, 8]: 1.38 × 10^6 M^–1 | Kd [4, 8]: 720 nM | dark/340 nm PSS (fold difference in folding constant / binding affinity) ([4]; ratio dark state to 340 nm PSS, 20 °C): 4.65

N[C@@H](Cc1ccc(N=Nc2ccccc2)cc1)C(=O)O [APhe1, Phenylazo-phenylalanine]
PSS, cis isomer ([5]; using a LED light source): 89% | PSS, cis isomer ([5]; using a mercury lamp): 79% | reported half-life of thermal relaxation [6]: 26.67 h

N[C@@H](Cc1ccc(N=Nc2ccc(C(=O)O)cc2)cc1)C(=O)O [APhe2]
PSS, cis isomer ([5]; using a mercury lamp): 81% | reported half-life of thermal relaxation [6]: 35 h
